We go through 1 compound from US20260272936A1, “TREATMENT OF CANCER WITH A PARG INHIBITOR” (858 Therapeutics, Inc., priority 2023, published 2026).

Holding throughout (experiment): 6-day cell proliferation, nuclei count
Holding throughout (assay type): cell-based

The test system of one assay is FU-97 cells. Particulars: Homo sapiens, Fu97, 144 h. From the text:
(§1) The FU-97 (Cat #JCRB1074) human gastric cancer cell line and the Kuramochi (Cat #JCRB0098) and RMUG-S(Cat #IFO50320) human ovarian cancer cell lines were obtained from the National Institutes of Biomedical Innovation, Health and Nutrition's Japanese Collection of Research Bioresources (JCRB) (Ibaraki City, Osaka, Japan). The HCC1419 (Cat #CRL-2326) and HCC1428 (Cat #CRL-2327) human breast cancer cell lines and the NCI-H1650 (Cat #CRL-5883) and NCI-H1792 (Cat #CRL-5895) non-small cell lung cancer cell lines were obtained from ATCC (Manassas, Virginia, USA). The human gastric cancer cell lines GCIY (Cat #RCB0555) and SNU601 (Cat #CSC-C9686L) were obtained from the Riken Bioresource Research Center (Tsukuba, Ibaraki, Japan) and Creative Bioarray (Shirley, NY, USA), respectively. The T025OV ovarian cancer organoid model was developed from a patient-derived xenograft (PDX) model, which was developed from primary serous ovarian carcinoma cells obtained from Discovery Life Sciences (Huntsville, AL, USA, SN #350627149). T026OV organoids were developed from PDX cells obtained from The Jackson Laboratory (Bar Harbor, ME, USA, Cat #TM00335).
(§2) All cell lines were grown in an incubator at 37° C. in 5% CO2. The Kuramochi and SNU-601 cells were cultured in RPMI+glutaMAX™ (Thermo Fisher Scientific, Waltham, MA, USA Cat #74200120) containing 1% penicillin/streptomycin (pen/strep) (Thermo Fisher Scientific Cat #15070-063), and 10% fetal bovine serum (FBS) (Thermo Fisher Scientific Cat #A31605-02). The HCC1419, HCC1428, NCI-H1650, and NCI-H1792 cells were cultured in ATCC-modified RPMI+glutaMAX™ (Thermo Fisher Scientific Cat #A10491-01) containing 1% pen/strep and 10% FBS. The FU-97 cells were cultured in DMEM+glutaMAX™ (Thermo Fisher Scientific, Waltham, MA, USA Cat #10566-016) containing 1% pen/strep, 10% FBS and 0.01 mg/mL bovine insulin (MilliporeSigma, Burlington, MA, USA Cat #10516-5ML). The GCIY cells were cultured in MEM (Thermo Fisher Scientific Cat #11095-080) containing 1% pen/strep and 15% FBS. The RMUG-S cells were cultured in Ham's F12 medium+glutaMAX™ (Thermo Fisher Scientific Cat #31765-035) containing 10% FBS and 1% pen/strep.
(§3) Compound 1 IC50 values for inhibition of cell proliferation were determined by imaging and counting the number of nuclei after compound treatment. Cells were harvested with trypsin (Thermo Fisher Scientific, Cat #25200-056) and plated in black-walled, clear bottom 96-well Corning costar 3603 plates (VWR, Radnor, PA, USA Cat #29444-008) at 7500 cells/well (HCC1428 and HCC1419), 5000 cells/well (Kuramochi, FU-97, SNU-601), 2500 cells/well (RMUG-S, GCIY, NCI-H1650) or 1000 cells/well (NCI-H1792) in 100 μL normal growth media and incubated overnight at 37° C., 5% CO2. The following day, a 1000× Compound 1 concentration curve was prepared by serial dilution of Compound 1 in 100% DMSO. The 1000× Compound 1 concentration curve was diluted 1:200 into growth media to generate a 5× concentration curve in 0.5% DMSO/growth medium before addition of 25 μL of the 5× compound to the wells. Control wells received 25 μL of 0.5% DMSO/media alone (negative control wells) or 50 μM Compound 1 (positive controls; 10 μM Compound 1 final). The plate was mixed gently on a plate shaker, covered with Breathe-Easy biofilm (Diversified Biotech, Cat #BEM-1), and incubated at 37° C., 5% CO2 for 6 days. Following the incubation period, a 125 μL fixation/permeabilization solution containing 8% paraformaldehyde (Fisher Scientific, Cat #50-980-495, part of Thermo Fisher Scientific) and 0.2% Triton X-100 (Thermo Fisher Scientific, Cat #327372500) in PBS was added to each well of the plate, and the plates were incubated at room temperature for 20 min. The solution was aspirated and cells washed by the addition of 100 μL PBS. After aspiration of the PBS, nuclei were stained by the addition of 100 μL 1 μg/mL DAPI (Thermo Fisher Cat #62248) in PBS. […]

Another assay has as its system GCIY cells. Particulars: Homo sapiens, 144 h.
Description: as §1, §2, §3

A further assay deals with HCC1419 cells. Particulars: Homo sapiens.
Description: as §1, §2, §3

The test system of another assay is HCC1428 cells. The settings on record: Homo sapiens.
Description: as §1, §2, §3

A further assay relates to Kuramochi cells. Particulars: Homo sapiens, 144 h.
Description: as §1, §2, §3

Another assay deals with NCI-H1650 cells. The settings on record: Homo sapiens.
Description: as §1, §2, §3

The test system of the next assay is NCI-H1792 cells. The settings on record: Homo sapiens.
Description: as §1, §2, §3

For the next assay, the system named is RMUG-S cells. The settings on record: Homo sapiens, 144 h.
Description: as §1, §2, §3

In the next assay the test system is SNU-601 cells. The settings on record: Homo sapiens.
Description: as §1, §2, §3

Setting [1] is: read-out: IC50 inhibition of proliferation.

For `[2H]C([2H])(c1cnn(C)c1)N1C(=O)c2cc(S(=O)(=O)NC3(C)CC3)ccc2N2C1=NC[C@H]2C` [Compound 1, (R)-1-methyl-4-((1-methyl-1H-pyrazol-4-yl)methyl-d2)-N-(1-methylcyclopropyl)-5-oxo-1,2,4,5-tetrahydroimidazo[1,2-a]quinazoline-7-sulfonamide], the IC50 in the assay on FU-97 cells (setting [1]) turned out to be 178 nM; in the assay with GCIY cells (setting [1]), 28 nM; with HCC1419 cells (HCC1419, 144 h, read-out: IC50 inhibition of proliferation) it was 50 nM; with HCC1428 cells (HCC1428, 144 h, read-out: IC50 inhibition of proliferation), 131 nM; with Kuramochi cells (setting [1]), 46 nM; with NCI-H1650 cells (NCI-H1650, 144 h, read-out: IC50 inhibition of proliferation), 100 nM. Also, the IC50 with NCI-H1792 cells (NCI-H1792, 144 h, read-out: IC50 inhibition of proliferation) was 1150 nM; in the assay with RMUG-S cells (setting [1]) it was 75 nM; in the assay with SNU-601 cells (SNU-601, 144 h, read-out: IC50 inhibition of proliferation), 149 nM. Besides, the IC90 in the assay on FU-97 cells (FU-97, 6 days, geometric mean, read-out: IC90 inhibition of proliferation) is 833 nM; in the assay on GCIY cells (6 days, geometric mean, read-out: IC90 inhibition of proliferation), 125 nM; with HCC1419 cells (144 h, HCC1419, 6 days, geometric mean, read-out: IC90 inhibition of proliferation) it was 206 nM; with HCC1428 cells (144 h, HCC1428, 6 days, geometric mean, read-out: IC90 inhibition of proliferation), 363 nM; with Kuramochi cells (Kuramochi, 6 days, geometric mean, read-out: IC90 inhibition of proliferation), 133 nM; in the assay with NCI-H1650 cells (144 h, NCI-H1650, 6 days, geometric mean, read-out: IC90 inhibition of proliferation), 320 nM. For the same compound, the IC90 is 4280 nM in the assay with NCI-H1792 cells (144 h, NCI-H1792, 6 days, geometric mean, read-out: IC90 inhibition of proliferation); 208 nM in the assay with RMUG-S cells (RMUG-S, 6 days, geometric mean, read-out: IC90 inhibition of proliferation); 539 nM with SNU-601 cells (144 h, SNU-601, 6 days, geometric mean, read-out: IC90 inhibition of proliferation).
